Source: PMC5218480 (PLoS ONE, 2017)

System: MV-4-11 cells
Assay: Gene expression microarray analysis (Affymetrix PrimeView) and GSEA
Assay type: cell-based, human
Set-up: RFU PODN (11730768_x_at) / Fold change /veh PODN (11730768_x_at) / RFU LINC00158 (11744669_a_at) / Fold change /veh LINC00158 (11744669_a_at) / RFU DUSP10 (11751237_a_at) / Fold change /veh DUSP10 (11751237_a_at) / RFU ID3 (11757404_x_at) / Fold change /veh ID3 (11757404_x_at) / RFU PLEKHG5 (11737974_s_at) / Fold change /veh PLEKHG5 (11737974_s_at) / RFU LRRC4B (11730491_at) / Fold change /veh LRRC4B (11730491_at) / RFU GIMAP4 (11747438_a_at) / Fold change /veh GIMAP4 (11747438_a_at) / RFU KRT8 (11758183_x_at) / Fold change /veh KRT8 (11758183_x_at) / RFU CNN1 (11734310_a_at) / Fold change /veh CNN1 (11734310_a_at) / RFU VPS37D (11726825_at) / Fold change /veh VPS37D (11726825_at) / RFU C10orf10 (11716522_x_at) / Fold change /veh C10orf10 (11716522_x_at) / RFU KIR2DL2 /// KIR2DL4 /// KIR2DL5A /// KIR2DL5B /// KIR2DS1 /// KIR2DS2 /// KIR2DS3 /// KIR2DS4 /// KIR3DL3 /// KIR3DL3 /// KIR3DS1 (11738374_at) / Fold change /veh KIR2DL2 /// KIR2DL4 /// KIR2DL5A /// KIR2DL5B /// KIR2DS1 /// KIR2DS2 /// KIR2DS3 /// KIR2DS4 /// KIR3DL3 /// KIR3DL3 /// KIR3DS1 (11738374_at) / RFU C1QL1 (11718748_at) / Fold change /veh C1QL1 (11718748_at) / RFU TMPRSS4 (11747572_a_at) / Fold change /veh TMPRSS4 (11747572_a_at) / RFU HAMP (11756126_x_at) / Fold change /veh HAMP (11756126_x_at) / RFU RNFT2 (11725882_a_at) / Fold change /veh RNFT2 (11725882_a_at) / RFU NR4A2 (11747474_a_at) / Fold change /veh NR4A2 (11747474_a_at) / RFU ABCC12 (11746883_a_at) / Fold change /veh ABCC12 (11746883_a_at) / RFU TMEM136 (11760407_x_at) / Fold change /veh TMEM136 (11760407_x_at) / RFU CLDN22 /// WWC2 (11732394_at) / Fold change /veh CLDN22 /// WWC2 (11732394_at) / RFU HLA-DPB1 (11760878_x_at) / Fold change /veh HLA-DPB1 (11760878_x_at) / RFU SPINT1 (11716480_a_at) / Fold change /veh SPINT1 (11716480_a_at) / RFU GAP43 (11754022_s_at) / Fold change /veh GAP43 (11754022_s_at) / RFU A4GNT (11735810_at) / Fold change /veh A4GNT (11735810_at) / RFU PRB3 (11715151_x_at) / Fold change /veh PRB3 (11715151_x_at) / RFU TUBB4B (11761932_at) / Fold change /veh TUBB4B (11761932_at) / RFU CAPN14 (11732068_a_at) / Fold change /veh CAPN14 (11732068_a_at) / RFU TMCC2 (11721928_a_at) / Fold change /veh TMCC2 (11721928_a_at) / RFU IRGQ (11745062_a_at) / Fold change /veh IRGQ (11745062_a_at) / RFU FAM174B (11720279_a_at) / Fold change /veh FAM174B (11720279_a_at) / RFU TMPRSS4 (11748680_a_at) / Fold change /veh TMPRSS4 (11748680_a_at) / RFU FAM212B (11763350_a_at) / Fold change /veh FAM212B (11763350_a_at) / RFU PLEKHG5 (11743358_a_at) / Fold change /veh PLEKHG5 (11743358_a_at) / RFU ZSCAN30 (11745921_a_at) / Fold change /veh ZSCAN30 (11745921_a_at) / RFU CMKLR1 (11741424_a_at) / Fold change /veh CMKLR1 (11741424_a_at) / RFU LOC101060620 /// MAPK8IP1 (11723275_at) / Fold change /veh LOC101060620 /// MAPK8IP1 (11723275_at) / RFU SPTSSB (11747773_x_at) / Fold change /veh SPTSSB (11747773_x_at) / RFU PRSS12 (11739890_at) / Fold change /veh PRSS12 (11739890_at) / RFU BIN1 (11741810_x_at) / Fold change /veh BIN1 (11741810_x_at) / RFU WNT11 (11732464_a_at) / Fold change /veh WNT11 (11732464_a_at) / RFU C10orf10 (11716521_a_at) / Fold change /veh C10orf10 (11716521_a_at) / RFU C5orf56 (11738089_at) / Fold change /veh C5orf56 (11738089_at) / RFU CYB561 (11721691_x_at) / Fold change /veh CYB561 (11721691_x_at) / RFU ANKRD19P (11752326_a_at) / Fold change /veh ANKRD19P (11752326_a_at) / RFU OR2T12 /// OR2T33 /// OR2T8 (11738714_s_at) / Fold change /veh OR2T12 /// OR2T33 /// OR2T8 (11738714_s_at) / RFU VCAN (11748164_a_at) / Fold change /veh VCAN (11748164_a_at) / RFU JSRP1 (11732532_at) / Fold change /veh JSRP1 (11732532_at) / RFU KRTAP10-11 (11738290_x_at) / Fold change /veh KRTAP10-11 (11738290_x_at) / RFU MYO3A (11730013_a_at) / Fold change /veh MYO3A (11730013_a_at) / RFU EBF3 (11725865_a_at) / Fold change /veh EBF3 (11725865_a_at) / RFU CAMK2N1 (11719241_x_at) / Fold change /veh CAMK2N1 (11719241_x_at) / RFU C5orf56 (11738088_a_at) / Fold change /veh C5orf56 (11738088_a_at) / RFU OLFML3 (11715873_a_at) / Fold change /veh OLFML3 (11715873_a_at) / RFU LOC100653217 /// NTM (11731650_a_at) / Fold change /veh LOC100653217 /// NTM (11731650_a_at) / RFU MAPK11 (11762145_a_at) / Fold change /veh MAPK11 (11762145_a_at) / RFU FIZ1 (11724087_x_at) / Fold change /veh FIZ1 (11724087_x_at) / RFU OASL (11726364_x_at) / Fold change /veh OASL (11726364_x_at) / RFU SOX15 (11748057_x_at) / Fold change /veh SOX15 (11748057_x_at) / RFU CD79A (11719716_a_at) / Fold change /veh CD79A (11719716_a_at) / RFU HIST1H1D (11736915_at) / Fold change /veh HIST1H1D (11736915_at) / RFU CASKIN2 (11723855_a_at) / Fold change /veh CASKIN2 (11723855_a_at) / RFU LOC730098 (11760151_x_at) / Fold change /veh LOC730098 (11760151_x_at) / RFU OR4N2 (11742367_at) / Fold change /veh OR4N2 (11742367_at) / RFU PRRT2 (11749266_a_at) / Fold change /veh PRRT2 (11749266_a_at) / RFU SNX32 (11753110_a_at) / Fold change /veh SNX32 (11753110_a_at) / RFU CDHR5 (11726645_a_at) / Fold change /veh CDHR5 (11726645_a_at) / RFU RCAN1 (11760418_a_at) / Fold change /veh RCAN1 (11760418_a_at) / RFU FAM167A (11723789_a_at) / Fold change /veh FAM167A (11723789_a_at) / RFU FAM26E (11764081_at) / Fold change /veh FAM26E (11764081_at) / RFU ISYNA1 (11749810_s_at) / Fold change /veh ISYNA1 (11749810_s_at) / RFU ACY1 (11761880_at) / Fold change /veh ACY1 (11761880_at) / RFU 11764098_at / Fold change /veh 11764098_at / RFU SAMD14 (11745864_x_at) / Fold change /veh SAMD14 (11745864_x_at) / RFU NPB (11741838_a_at) / Fold change /veh NPB (11741838_a_at) / RFU TMPRSS6 (11731388_a_at) / Fold change /veh TMPRSS6 (11731388_a_at) / RFU KRTAP10-2 (11738614_at) / Fold change /veh KRTAP10-2 (11738614_at) / RFU ARHGAP8 /// PRR5-ARHGAP8 (11727945_x_at) / Fold change /veh ARHGAP8 /// PRR5-ARHGAP8 (11727945_x_at) / RFU KRTAP5-7 /// NADSYN1 (11734609_at) / Fold change /veh KRTAP5-7 /// NADSYN1 (11734609_at) / RFU RASL12 (11751679_a_at) / Fold change /veh RASL12 (11751679_a_at) / RFU CDKN2B (11736163_a_at) / Fold change /veh CDKN2B (11736163_a_at) / RFU PRF1 (11729649_at) / Fold change /veh PRF1 (11729649_at) / RFU, ZNF638 /// ZNF638-IT1 / Fold change vs veh, ZNF638 /// ZNF638-IT1 / RFU, PANK3 / Fold change vs veh, PANK3 / RFU, SH3YL1 / Fold change vs veh, SH3YL1 / RFU, ZEB2 / Fold change vs veh, ZEB2 / RFU, NRIP1 / Fold change vs veh, NRIP1 / RFU, PTTG1IP / Fold change vs veh, PTTG1IP / RFU, CAPN2 / Fold change vs veh, CAPN2 / RFU, MED14 / Fold change vs veh, MED14 / RFU, SNORA58 / Fold change vs veh, SNORA58 / RFU, C1orf63 / Fold change vs veh, C1orf63 / RFU, LRRFIP1 / Fold change vs veh, LRRFIP1 / RFU, NDUFAF7 / Fold change vs veh, NDUFAF7 / RFU, SLC12A2 / Fold change vs veh, SLC12A2 / RFU, IBTK / Fold change vs veh, IBTK / RFU, ESF1 / Fold change vs veh, ESF1 / Fold change vs veh, TMEM50B / RFU, TAOK1 / Fold change vs veh, TAOK1 / RFU, ACBD3 / Fold change vs veh, ACBD3 / RFU, TMA16 / Fold change vs veh, TMA16 / RFU, RWDD3 / Fold change vs veh, RWDD3 / RFU, BCAT1 / Fold change vs veh, BCAT1 / RFU, EDEM3 / Fold change vs veh, EDEM3 / RFU, TMEM33 / Fold change vs veh, TMEM33 / RFU, WDR75 / Fold change vs veh, WDR75 / RFU, AHCTF1 / Fold change vs veh, AHCTF1 / RFU, TFRC / Fold change vs veh, TFRC / RFU, ZDHHC17 / Fold change vs veh, ZDHHC17 / RFU, NOM1 / Fold change vs veh, NOM1 / RFU, ARL8B / Fold change vs veh, ARL8B / RFU, ZBTB11 / Fold change vs veh, ZBTB11 / RFU, TAMM41 / Fold change vs veh, TAMM41 / RFU, KIAA1704 /// LOC100996395 / Fold change vs veh, KIAA1704 /// LOC100996395 / RFU, ING1 / Fold change vs veh, ING1 / RFU, TRMT61B / Fold change vs veh, TRMT61B / RFU, FUBP3 / Fold change vs veh, FUBP3 / RFU, TP53 / Fold change vs veh, TP53 / RFU, TNKS2 / Fold change vs veh, TNKS2 / RFU, ZFP14 / Fold change vs veh, ZFP14 / RFU, ACTR2 / Fold change vs veh, ACTR2 / RFU, PPP3R1 / Fold change vs veh, PPP3R1 / RFU, PIK3R1 / Fold change vs veh, PIK3R1 / RFU, HNRNPA1 / Fold change vs veh, HNRNPA1 / RFU, RNF170 / Fold change vs veh, RNF170 / RFU, ZNF28 / Fold change vs veh, ZNF28 / RFU, RNGTT / Fold change vs veh, RNGTT / RFU, OGT / Fold change vs veh, OGT / RFU, BRD1 / Fold change vs veh, BRD1 / RFU, MARS / Fold change vs veh, MARS / RFU, ZNF655 / Fold change vs veh, ZNF655 / RFU, FAHD1 / Fold change vs veh, FAHD1 / RFU, BDP1 / Fold change vs veh, BDP1 / RFU, LRRCC1 / Fold change vs veh, LRRCC1 / RFU, ARID1A / Fold change vs veh, ARID1A / RFU, ZNF146 / Fold change vs veh, ZNF146 / RFU, ZNF330 / Fold change vs veh, ZNF330 / RFU, GPN3 / Fold change vs veh, GPN3 / RFU, C9orf123 / Fold change vs veh, C9orf123 / RFU, N4BP2L2 / Fold change vs veh, N4BP2L2 / RFU, ARFIP1 / Fold change vs veh, ARFIP1 / RFU, FAM179B / Fold change vs veh, FAM179B / RFU, BCL10 / Fold change vs veh, BCL10 / RFU, UHRF1BP1L / Fold change vs veh, UHRF1BP1L / RFU, BET1 / Fold change vs veh, BET1 / RFU, CNOT2 / Fold change vs veh, CNOT2 / RFU, ZNF268 / Fold change vs veh, ZNF268 / Fold change vs veh, ZNF507 / RFU, DGCR2 / Fold change vs veh, DGCR2 / RFU, WDSUB1 / Fold change vs veh, WDSUB1 / Fold change vs veh, HSP90B1 /// MIR3652 / RFU, ADSS / Fold change vs veh, ADSS / RFU, GK / Fold change vs veh, GK / RFU, ZNF148 / Fold change vs veh, ZNF148 / RFU, TAF9 / Fold change vs veh, TAF9 / RFU, SLC1A5 / Fold change vs veh, SLC1A5 / RFU, SLMO2 / Fold change vs veh, SLMO2 / RFU, ABCC4 / Fold change vs veh, ABCC4 / RFU, LOC101060439 /// RAP1B / Fold change vs veh, LOC101060439 /// RAP1B / RFU, RFX7 / Fold change vs veh, RFX7 / RFU, GTPBP10 / Fold change vs veh, GTPBP10 / RFU, CNEP1R1 / Fold change vs veh, CNEP1R1 / RFU, BIVM-ERCC5 /// ERCC5 / Fold change vs veh, BIVM-ERCC5 /// ERCC5 / RFU, ILF3 / Fold change vs veh, ILF3 / RFU 11762660_at / Fold change /veh 11762660_at / RFU VCAN (11757783_s_at) / Fold change /veh VCAN (11757783_s_at) / RFU DDX43 (11728927_at) / Fold change /veh DDX43 (11728927_at) / RFU KRT8 (11758188_x_at) / Fold change /veh KRT8 (11758188_x_at) / RFU NKD1 (11759106_at) / Fold change /veh NKD1 (11759106_at) / RFU SRD5A1 (11742802_a_at) / Fold change /veh SRD5A1 (11742802_a_at) / RFU TPSAB1 /// TPSB2 (11721975_s_at) / Fold change /veh TPSAB1 /// TPSB2 (11721975_s_at) / RFU GSTM3 (11746129_a_at) / Fold change /veh GSTM3 (11746129_a_at) / RFU IL23R (11737362_x_at) / Fold change /veh IL23R (11737362_x_at) / RFU TMEM51 (11727254_a_at) / Fold change /veh TMEM51 (11727254_a_at) / RFU PIWIL2 (11732686_x_at) / Fold change /veh PIWIL2 (11732686_x_at) / RFU ORM1 (11744905_x_at) / Fold change /veh ORM1 (11744905_x_at) / RFU CCDC152 (11743942_at) / Fold change /veh CCDC152 (11743942_at) / RFU ECM1 (11717891_a_at) / Fold change /veh ECM1 (11717891_a_at) / RFU IL23R (11748794_a_at) / Fold change /veh IL23R (11748794_a_at) / RFU TNFAIP8L3 (11732012_x_at) / Fold change /veh TNFAIP8L3 (11732012_x_at) / RFU MBOAT4 (11741988_at) / Fold change /veh MBOAT4 (11741988_at) / RFU 11764193_at / Fold change /veh 11764193_at / RFU TMEM53 (11763286_at) / Fold change /veh TMEM53 (11763286_at) / RFU MAGEB2 (11727129_at) / Fold change /veh MAGEB2 (11727129_at) / RFU TMEM200A (11744735_a_at) / Fold change /veh TMEM200A (11744735_a_at) / RFU CCDC152 (11751479_a_at) / Fold change /veh CCDC152 (11751479_a_at) / RFU FAM211A (11726209_a_at) / Fold change /veh FAM211A (11726209_a_at) / RFU RGS16 (11746705_a_at) / Fold change /veh RGS16 (11746705_a_at) / RFU VCAN (11755009_s_at) / Fold change /veh VCAN (11755009_s_at) / RFU RHOB (11743442_s_at) / Fold change /veh RHOB (11743442_s_at) / RFU RGS16 (11720943_a_at) / Fold change /veh RGS16 (11720943_a_at) / RFU RGS16 (11720944_at) / Fold change /veh RGS16 (11720944_at) / RFU, VPS4B / Fold change vs veh, VPS4B / RFU, CREB1 / Fold change vs veh, CREB1 / RFU, DNAJC13 / Fold change vs veh, DNAJC13 / RFU, GNAQ / Fold change vs veh, GNAQ / RFU, CDK5R1 / Fold change vs veh, CDK5R1 / RFU, ZRANB3 / Fold change vs veh, ZRANB3 / RFU, CUL4A / Fold change vs veh, CUL4A / RFU, CCNY / Fold change vs veh, CCNY / RFU, UFL1 / Fold change vs veh, UFL1 / RFU, COG3 / Fold change vs veh, COG3 / RFU, DIAPH2 / Fold change vs veh, DIAPH2 / RFU, SKA2 / Fold change vs veh, SKA2 / RFU, AFF3 / Fold change vs veh, AFF3 / RFU, LMF1 / Fold change vs veh, LMF1 / RFU, IPO11 / Fold change vs veh, IPO11 / RFU, DFFB / Fold change vs veh, DFFB / RFU, FOXP1 / Fold change vs veh, FOXP1 / RFU, CARD8 / Fold change vs veh, CARD8 / RFU, STRN3 / Fold change vs veh, STRN3 / RFU, ADK / Fold change vs veh, ADK / RFU, RASSF2 / Fold change vs veh, RASSF2 / RFU, WIPF1 / Fold change vs veh, WIPF1 / RFU, LARP1B / Fold change vs veh, LARP1B / RFU, RASA1 / Fold change vs veh, RASA1 / RFU, RB1 / Fold change vs veh, RB1 / RFU, PPFIA1 / Fold change vs veh, PPFIA1 / RFU, MAT2A / Fold change vs veh, MAT2A / RFU, CCT5 / Fold change vs veh, CCT5 / RFU, WDR92 / Fold change vs veh, WDR92 / RFU, CUX1 / Fold change vs veh, CUX1 / RFU, TTC7A / Fold change vs veh, TTC7A / RFU, TMEM135 / Fold change vs veh, TMEM135 / RFU, DEPTOR / Fold change vs veh, DEPTOR / RFU, CPM / Fold change vs veh, CPM / RFU, DNAJB6 / Fold change vs veh, DNAJB6 / RFU, CACNA2D3 / Fold change vs veh, CACNA2D3 / RFU, DTX4 / Fold change vs veh, DTX4 / RFU, TFCP2 / Fold change vs veh, TFCP2 / RFU, GMCL1 /// GMCL1P1 / Fold change vs veh, GMCL1 /// GMCL1P1 / RFU, AEBP2 / Fold change vs veh, AEBP2 / RFU, SNHG1 /// SNORD22 /// SNORD25 /// SNORD26 /// SNORD27 /// SNORD28 /// SNORD29 /// SNORD31 / Fold change vs veh, SNHG1 /// SNORD22 /// SNORD25 /// SNORD26 /// SNORD27 /// SNORD28 /// SNORD29 /// SNORD31 / Fold change (Aza/veh), C12orf56 (ProbeSet 11735607_a_at) / Fold change (ACY-1035/veh), C12orf56 (ProbeSet 11735607_a_at) / Fold change (Aza/veh), FGFR1OP (ProbeSet 11751329_s_at) / Fold change (ACY-1035/veh), FGFR1OP (ProbeSet 11751329_s_at) / Fold change (Aza/veh), VPS36 (ProbeSet 11739960_a_at) / Fold change (ACY-1035/veh), VPS36 (ProbeSet 11739960_a_at) / RFU SYPL1 (11715823_x_at) / Fold change /veh SYPL1 (11715823_x_at) / RFU IGFBP7 (11715501_s_at) / Fold change /veh IGFBP7 (11715501_s_at) / RFU REEP3 (11722064_at) / Fold change /veh REEP3 (11722064_at) / RFU IGLL1 (11728026_x_at) / Fold change /veh IGLL1 (11728026_x_at): dose or concentration left out as unconfirmed
Settings: ProbeSet 11721559_s_at; LIST B

Nc1ccc(-c2cccs2)cc1NC(=O)c1ccc2c(c1)cc(C1CC1)n2CCN1CCOCC1 [ACY-1035]
RFU, ZNF638 /// ZNF638-IT1: 322.16 RFU
